Like-named read-outs stand apart in the source and are kept apart here.
How the values were obtained:
N2a cell line = experiment: N2a cell viability versus concentration (IC50); format: cell-based; settings: Mus musculus; N2a cells; called predicted IC50; read-out: IC50 (concentration at which 50% cell survival was observed)
[1] = Plasma pharmacokinetics of CLB by LC-MS/MS after intramuscular administration; format: in vivo, SD rats
Procedure: (§1) The study used 60 male SD rats (BioLASCO, Taiwan; average age, 8 weeks). The study was approved by the Institutional Animal Care and Use Committee (No. 20,190,497) of National Taiwan University. CLB.HCl (Sigma-Aldrich C5423; Lot# BCBQ2163V) powder was stored at 4 °C and diluted in sterile 0.9% saline to a concentration of 20 µM based on the free base before injection. AlCl3 (7446-70-0, Sigma-Aldrich) was dissolved in normal saline before injection, and 70 mg/kg body weight of AlCl3 was administered intraperitoneally (i.p.) three times weekly for 8 weeks as previously described. […] After 8 weeks, several animal behavioral tests, histological staining, pharmacokinetics, and biochemical analyses were performed.
LC-MS/MS was used to perform quantitative analysis using an LCMS8030 system (Shimadzu, Japan). We used the multiple reaction monitoring mode for mass spectrometric analysis, and the MS/MS parameters were optimized by flow injection analysis. Plasma samples were prepared using simple protein precipitation in methanol. The specificity of the method was tested by analyzing blank rat plasma, blank rat plasma spiked with clenbuterol-d9 (internal standard, IS), and plasma samples collected after CLB administration. A Thermo Hypersil Gold aQ C18 column (50 mm × 2.1 mm) with a particle size of 1.9 μm was used for separation. The mobile phase gradient consisted of (A) 2% methanol in pure water + 0.1% formic acid, and (B) methanol with 0.1% formic acid. The gradient elution was as follows: 30% B (0 min), 30% B (0.5 min), 98% B (2.5 min), 98% B (3.5 min), 30% B (4 min), and 30% B (5.5 min) at a flow rate of 300 µL/min, with a total run time of […]. A calibration curve was constructed using the plasma concentration of the quality control (QC) sample and the peak area ratio (y) of the QC sample to the IS. The linear calibration curves of CLB ranged from 0.5 to 200 ng/mL, with correlation coefficients over 0.99952. The injection volume of the final solution was 20 µL for the serum specimens. To evaluate the accuracy, precision, and extraction recovery of the assay, three sequential assays were performed with six replicates of QC samples (5, 50, and 500 ng/mL CLB) for each assay. QC samples were prepared from normal blank rat plasma at concentrations of 0.5, 2, 5, 20, 50, 200, and 500 ng/mL of CLB. The concentrations of the QC samples were calculated based on the calibration curve and compared with those of the control samples with the same concentration. For the brain sample homogenization procedures, a brain sample and an equivalent weight of 25% plasma solution were mixed in a 50 mL centrifuge tube and homogenized completely at 30,000 rpm on ice. The resulting homogenized solution was centrifuged and the supernatant was collected as a test sample. The test sample was filtered through a 0.2 μm GHP filter, and 200 µL of the sample mixture was transferred into a new 96-well 1 mL round collection plate and sealed. Finally, the samples were placed in an autosampler to be injected.

BV-2 microglial cells = experiment: Western blot analysis of LPS-induced inflammation; format: cell-based
Procedure: LPS (L2880, Sigma) was dissolved in normal saline before injection. BV2 cells were seeded in 6-well plates at a density of 10^5 cells/well and cultured for 1 day to allow full adhesion. […] Subsequently, LPS (1 µg/mL) was added to induce inflammation for 24 h. The medium was then removed and the BV2 cells were washed three times with PBS. The cells were then lysed in 100 µL of ice-cold radioimmunoprecipitation assay buffer, and protein concentrations were quantified using the Bio-Rad protein assay. Equal amounts of proteins were electrophoresed on a 10% sodium dodecyl sulfate-polyacrylamide gel. The separated proteins were transferred onto nitrocellulose membranes and incubated with primary monoclonal mouse antibodies (BIOTOOLS Co., Ltd., Taipei, Taiwan) against IL-6 (1:1000), IL-1β (1:1000), TNF-α (1:1000), and β-actin (1:5000) overnight at 4 °C. Following incubation with the appropriate secondary antibody, the signals were analyzed using an imaging system (Bio-Rad).

Aβ42 peptides = target: T1, Aβ42 peptides (Homo sapiens, UniProt P05067); experiment: Thioflavin T fluorescence assay and TEM of Aβ aggregation; format: biochemical
T1 construct: Aβ42 peptides were obtained from Peptide Institute, Inc; purchased Peptide Institute, Inc. (ASIA BIOSCIENCE Co., Ltd., Taiwan)
Procedure: Aβ42 peptides were obtained from Peptide Institute, Inc. (ASIA BIOSCIENCE Co., Ltd., Taiwan) and dissolved in hexafluoro-2-propanol (HFIP; Oakwood Products, Estill, SC, USA) to a final concentration of 1 mM for monomerization. The resulting solution was stored at − 80 °C. The monomerized peptides were resuspended in anhydrous DMSO (catalog number D-2650, Sigma) and diluted to a concentration of 100 µM using Dulbecco’s modified Eagle’s medium (DMEM, Sigma) before use. Aβ fibrils were formed by shaking the solution at 37 °C for 3 days. The morphology of the fibrils, with or without CLB incubation for 3 days, was observed using transmission electron microscopy (TEM). Samples were incubated with 1% uranyl acetate for 1 min before TEM.
The progression of amyloid β aggregation was tracked using thioflavin T (ThT), a fluorescent dye originally used to stain amyloid fibrils in histological samples. […] ThT fluorescence was measured at 25 °C using a spectrophotometric plate reader (ELISA reader, Tecan Sunrise, Switzerland) with an excitation filter at 450 nm and an emission filter at 482 nm, the computation of intensity was performed through the utilization of SoftMax Pro 7.0 software (Molecular Devices, CA, USA). After ThT binds to β-sheet aggregate structures, such as amyloid fibrils, its fluorescence emission changes, allowing the monitoring of amyloid β aggregation.

[2] = tested on: rats with AlCl3-induced AD; experiment: Morris water maze test in rats with AlCl3-induced AD; format: in vivo, SD rats; settings: 6 mg/kg intramuscular weekly, 8 weeks
Procedure: as §1
This study used a circular pool partitioned into four quadrants, one of which contained an underwater platform. […] After four training sessions, the time taken by the rats to reach the escape platform was measured using EthoVision software (Noldus Information Technology, Wageningen, Netherlands). […] To evaluate spatial memory, the time taken by each rat to reach the platform from the starting position was recorded. On the contrary, working memory was assessed by determining the amount of time spent by the rat in the same quadrant (up to 120 s) but without a platform. The time spent in the quadrant without a platform was also recorded.

[3] = Drug content in brain tissues by LC/MS/MS; format: in vivo, SD rats; settings: male, SD, 6 mg/kg; rat brain homogenate, intramuscular injection; read-out: Concentration in brain tissues 24 h after injection
Procedure: as §1
LC-MS/MS was used to perform quantitative analysis using an LCMS8030 system (Shimadzu, Japan). We used the multiple reaction monitoring mode for mass spectrometric analysis, and the MS/MS parameters were optimized by flow injection analysis. Plasma samples were prepared using simple protein precipitation in methanol. The specificity of the method was tested by analyzing blank rat plasma, blank rat plasma spiked with clenbuterol-d9 (internal standard, IS), and plasma samples collected after CLB administration. […] The concentrations of the QC samples were calculated based on the calibration curve and compared with those of the control samples with the same concentration. […]

[4] = tested on: rats with AlCl3-induced AD; experiment: Western blot of brain tissue for synapsin-1, synaptophysin, BACE1 and TNF-α; format: in vivo, SD rats; settings: compared with the AD group
Procedure: as §1

L929 cell line = experiment: Biocompatibility by WST-1 assay (ISO 10993); format: cell-based
Procedure: The extracted supernatants were collected for subsequent experiments. Zinc diethyldithiocarbamate was used as a positive control and aluminum oxide was used as a negative control. After adding the WST-1 solution to the wells, the plate was incubated for 2 h, and the absorbance of each well was measured at 450 nm using a spectrophotometric plate reader (ELISA reader, Tecan Sunrise, Switzerland). The percentage of viable cells was calculated using the following equation:
Cell viability (%) = ((OD experiment - OD background) ×100)/ ((OD control - OD background))…(2).

[5] = male, SD, im, rat plasma, 6 mg/kg intramuscular

T1 sequence (P05067 672-713 limits assumed): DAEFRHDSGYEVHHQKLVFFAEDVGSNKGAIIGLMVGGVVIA

Q: Which IC50 (N2a cell line) does the source give for `CC(C)(C)NCC(O)c1cc(Cl)c(N)c(Cl)c1` (centres unmarked) [CLB, Clenbuterol] here?
A: The IC50 was 20 µM.

Q: What about the half-life ([1]; SD, rat, plasma, intramuscular, 6 mg/kg, rats) of the same compound?
A: The half-life was about 30 h.

Q: What about the AUC(0-inf) [1, 5] of the same compound?
A: The AUC(0-inf) was 5200 ± 4000 ng·h/mL.

Q: And the Tmax [1, 5]?
A: Its Tmax is 4 h.

Q: What about the AUC(0-t) ([1]; male, SD, im, rat plasma, 6 mg/kg intramuscular, 0.5-168 hr) of the same compound?
A: Its AUC(0-t) is 4890 ± 3740 ng·h/mL.

Q: And the Cmax ([1]; male, SD, rat, plasma, im, 6 mg/kg, rat plasma, 6 mg/kg intramuscular, read-out: Cmax)?
A: The Cmax was 120 ± 12.8 ng/mL.

Q: What about the Cmax ([1]; rat plasma, 6 mg/kg intramuscular, 6 mg/kg) of the same compound?
A: The Cmax was 120.19 ng/mL.

Q: What about the “accumulation after multiple-dose administration” value ([1]; rats, repeated intramuscular dosing) of the same compound?
A: The value was “no apparent accumulation”.

Q: And the “protein expression levels of IL-1β, IL-6, and TNF-α” value (BV-2 microglial cells; LPS-induced BV-2 cells, western blot)?
A: Its value is “prominently reduced”.

Q: What about the “secretion of IL-1β, IL-6, and TNF-α” value (BV-2 microglial cells; LPS-stimulated BV-2 cells, 20 µM, vs LPS-treated control cells) of the same compound?
A: The value was “significant inhibitory effects”.

Q: What about the “effect on Aβ aggregates (ThT fluorescence)” value (Aβ42 peptides; 10 µM Aβ incubated with 20 µM CLB) of the same compound?
A: Its value is “extensive fragmentation”.

Q: And the “effect on Aβ fibrils (TEM)” value (Aβ42 peptides; Aβ and CLB co-incubated for 3 days)?
A: Its value is “disassembled amyloid plaques”.

Q: What about the “time to locate the escape platform (MWM)” value [2] of the same compound?
A: The value was “did not exhibit a performance similar to that of the SHAP-CLB group”.

Q: What about the concentration at 24 h [3] of the same compound?
A: Its concentration at 24 h is 5.24 ± 1.81 ng/mL.

Q: And the “expression of synapsin-1 and synaptophysin in hippocampus” value [4]?
A: The value was “significant increase”.

Q: And the “cell viability / cytotoxicity” value (L929 cell line; L929 cells, day 3, WST-1, extract medium)?
A: The value was “no notable disparities in cell viability”.

Q: For Hydroxyapatite [HAP], which “cell viability / cytotoxicity” value (L929 cell line) is on record?
A: The value was “no notable disparities in cell viability”.

From PMC10557233, “Controlled release of Clenbuterol from a hydroxyapatite carrier for the treatment of Alzheimer’s Disease” (Biomaterials Research, 2023)
